The results in this text go back to ChEMBL document CHEMBL1268965, “Synthesis and antifungal activity of a novel series of 13-(4-isopropylbenzyl)berberine derivatives” (Bioorg Med Chem Lett, 2010).

In brackets after ≈: the same amount, converted by molar mass.

The test system of one series is Clavispora lusitaniae. The series is described as follows: Antifungal activity against Candida lusitaniae ATCC 42720 after 24 hrs by two fold serial dilution method. It counts as functional. The settings on record: ATCC 42720, 24 h.
The test system of another series is Aspergillus terreus. Put plainly: Antifungal activity against Aspergillus terreus ATCC 46941 after 24 hrs by two fold serial dilution method. The settings on record: ATCC 46941, 24 h. It counts as functional.
Another series deals with Pichia kudriavzevii. The series is described as follows: Antifungal activity against Candida krusei ATCC 6258 after 24 hrs by two fold serial dilution method. Particulars: ATCC 6258, 24 h. The series is classed as functional.
In another series the test system is Aspergillus fumigatus. Put plainly: Antifungal activity against Aspergillus fumigatus ATCC 16424 after 24 hrs by two fold serial dilution method. It counts as functional. Particulars: ATCC 16424, 24 h.
The test system of another series is Candida albicans. The series is described as follows: Antifungal activity against Candida albicans ATCC 10231 after 24 hrs by two fold serial dilution method. The series is classed as functional. Particulars: ATCC 10231, 24 h.
A further series concerns Candida tropicalis. Put plainly: Antifungal activity against Candida tropicalis ATCC 13803 after 24 hrs by two fold serial dilution method. The series is classed as functional. The settings on record: ATCC 13803, 24 h.
Another series deals with Cryptococcus neoformans. The series is described as follows: Antifungal activity against Cryptococcus neoformans ATCC 36556 after 24 hrs by two fold serial dilution method. The series is classed as functional. The settings on record: ATCC 36556, 24 h.
Series [1] deals with Mus musculus. The series is described as follows: Toxicity ICR mouse assessed as mortality at 33 to 900 mg/kg, po after 7 days. The settings on record: in vivo, 168 h. It counts as organism-based. Set-up: dose 33-900 mg/kg, route oral.
A short description of series [2]: Toxicity in po dosed ICR mouse after 7 days. The series is classed as organism-based. The settings on record: in vivo.
Series [3] has as its system Mus musculus. Put plainly: Toxicity ICR mouse assessed as effect on body weight at 33 to 900 mg/kg, po after 7 days. It counts as organism-based. Also noted: dose 33-900 mg/kg, route oral. The settings on record: in vivo, 168 h.
Series [4] concerns Mus musculus. Put plainly: Toxicity ICR mouse assessed as effect on internal organ morphology at 33 to 900 mg/kg, po after 7 days by microscopy. Set-up: dose 33-900 mg/kg, route oral. The settings on record: in vivo, 168 h. It counts as organism-based.
The test system of series [5] is Mus musculus. Put plainly: Toxicity ICR mouse assessed as appearance of clinical signs at 33 to 900 mg/kg, po after 7 days. The series is classed as organism-based. Set-up: dose 33-900 mg/kg, route oral. The settings on record: in vivo, 168 h.

A word on the MIC: it is the least concentration at which growth counts as inhibited. Read a high MIC as a less susceptible organism. With `COc1ccc2c(Cc3ccc(C(C)C)cc3)c3[n+](cc2c1OC(C)=O)CCc1cc2c(cc1-3)OCO2.[Cl-]`, the MIC against Clavispora lusitaniae was 16 µg/mL; in the series on Aspergillus terreus it was over 128 µg/mL; in the series on Pichia kudriavzevii, 16 µg/mL; in the series with Aspergillus fumigatus, over 128 µg/mL; in the series with Candida albicans it was 16 µg/mL; against Candida tropicalis it was 16 µg/mL. The MIC in the series on Cryptococcus neoformans was 8 µg/mL.

On to `C/C=C/COc1c(OC)ccc2c(Cc3ccc(C(C)C)cc3)c3[n+](cc12)CCc1cc2c(cc1-3)OCO2.[Cl-]`, for which the minimal inhibitory concentration (MIC) in the series with Clavispora lusitaniae stood at 0.5 µg/mL; in the series with Aspergillus terreus, 4 µg/mL; in the series with Pichia kudriavzevii, 1 µg/mL; in the series on Aspergillus fumigatus, 2 µg/mL; in the series on Candida albicans, 0.5 µg/mL; in the series with Candida tropicalis, 0.5 µg/mL. In the series on Cryptococcus neoformans, this molecule yielded an MIC of 1 µg/mL.

Regarding `COc1ccc2c(Cc3ccc(C(C)C)cc3)c3[n+](cc2c1OCc1ccc(C(C)(C)C)cc1)CCc1cc2c(cc1-3)OCO2.[Cl-]`, the minimal inhibitory concentration (MIC) in the series on Clavispora lusitaniae amounted to 1 µg/mL; in the series on Aspergillus terreus it was 8 µg/mL; in the series with Pichia kudriavzevii, 4 µg/mL; in the series on Aspergillus fumigatus it was 4 µg/mL; with Candida albicans, 1 µg/mL; against Candida tropicalis it was 1 µg/mL. Further, in the series with Cryptococcus neoformans, the lowest concentration to inhibit growth (MIC) was 2 µg/mL.

For the molecule `CCC(C)(C)Oc1c(OC)ccc2c(Cc3ccc(C(C)C)cc3)c3[n+](cc12)CCc1cc2c(cc1-3)OCO2.[Cl-]`, the minimal inhibitory concentration (MIC) against Clavispora lusitaniae is 1 µg/mL; against Aspergillus terreus it was 16 µg/mL; against Pichia kudriavzevii it was 4 µg/mL; against Aspergillus fumigatus it was 32 µg/mL; in the series with Candida albicans, 2 µg/mL; in the series on Candida tropicalis, 1 µg/mL. This molecule gave an MIC against Cryptococcus neoformans of 4 µg/mL.

With `COc1ccc2c(Cc3ccc(C(C)C)cc3)c3[n+](cc2c1OCCCO)CCc1cc2c(cc1-3)OCO2.[Cl-]`, the minimum inhibitory concentration (MIC) was 1 µg/mL with Clavispora lusitaniae; 8 µg/mL with Aspergillus terreus; 2 µg/mL with Pichia kudriavzevii; 8 µg/mL in the series with Aspergillus fumigatus; 2 µg/mL in the series on Candida albicans; 1 µg/mL against Candida tropicalis. The molecule also yielded a minimum inhibitory concentration (MIC) against Cryptococcus neoformans of 2 µg/mL.

Take `CCCOc1c(OC)ccc2c(Cc3ccc(C(C)C)cc3)c3[n+](cc12)CCc1cc2c(cc1-3)OCO2.[Cl-]`: the MIC against Clavispora lusitaniae came to 0.5 µg/mL; in the series on Aspergillus terreus it was 8 µg/mL; with Pichia kudriavzevii, 2 µg/mL; in the series with Aspergillus fumigatus, 4 µg/mL; in the series on Candida albicans, 1 µg/mL; against Candida tropicalis, 0.5 µg/mL. The same molecule registered an MIC against Cryptococcus neoformans of 2 µg/mL.

As for `COc1ccc2c(Cc3ccc(C(C)C)cc3)c3[n+](cc2c1OCc1ccc(C(F)(F)F)cc1)CCc1cc2c(cc1-3)OCO2.[Cl-]`, the minimum inhibitory concentration (MIC) with Clavispora lusitaniae was determined as 2 µg/mL; against Aspergillus terreus it was 16 µg/mL; against Pichia kudriavzevii, 4 µg/mL; in the series with Aspergillus fumigatus, 16 µg/mL; in the series on Candida albicans, 2 µg/mL; against Candida tropicalis it was 2 µg/mL. Inhibition of growth against Cryptococcus neoformans (MIC) required 4 µg/mL.

Turning to `C[C@@H]1[C@H](O)[C@@H](C)/C=C/C=C/C=C/C=C/C=C/C=C/C=C/[C@H](O[C@@H]2O[C@H](C)[C@@H](O)[C@H](N)[C@@H]2O)C[C@@H]2O[C@](O)(C[C@@H](O)C[C@@H](O)[C@H](O)CC[C@@H](O)C[C@@H](O)CC(=O)O[C@H]1C)C[C@H](O)[C@H]2C(=O)O` [AMPHOTERICIN B], the MIC in the series with Clavispora lusitaniae came out at 1 µg/mL (≈ 1.08 µM); in the series on Aspergillus terreus, 16 µg/mL (≈ 17.3 µM); in the series on Pichia kudriavzevii it was 0.5 µg/mL (≈ 0.541 µM); against Aspergillus fumigatus, 1 µg/mL (≈ 1.08 µM); in the series with Candida albicans, 0.5 µg/mL (≈ 0.541 µM); against Candida tropicalis, 0.5 µg/mL (≈ 0.541 µM). In addition, inhibition of growth against Cryptococcus neoformans (MIC) required 0.25 µg/mL (≈ 0.271 µM).

Regarding `COc1ccc2c(Cc3ccc(C(C)C)cc3)c3n(cc-2c1=O)CCc1cc2c(cc1-3)OCO2`, the minimum inhibitory concentration (MIC) against Clavispora lusitaniae was 16 µg/mL (≈ 35.3 µM); with Aspergillus terreus, over 128 µg/mL; with Pichia kudriavzevii, 16 µg/mL (≈ 35.3 µM); in the series with Aspergillus fumigatus it was over 128 µg/mL; in the series on Candida albicans, 16 µg/mL (≈ 35.3 µM); in the series on Candida tropicalis, 16 µg/mL (≈ 35.3 µM). In the series with Cryptococcus neoformans, this molecule came in with a minimum inhibitory concentration (MIC) of 4 µg/mL (≈ 8.82 µM).

Take `COc1ccc2c(Cc3ccc(C(C)C)cc3)c3[n+](cc2c1OCc1ccccc1)CCc1cc2c(cc1-3)OCO2.[Cl-]`: the MIC against Clavispora lusitaniae turned out to be 4 µg/mL; in the series on Aspergillus terreus, 32 µg/mL; against Pichia kudriavzevii it was 4 µg/mL; in the series on Aspergillus fumigatus, 64 µg/mL; in the series with Candida albicans, 4 µg/mL; against Candida tropicalis, 4 µg/mL. In addition, the MIC in the series with Cryptococcus neoformans was determined as 4 µg/mL.

A word on the LD50: it is the dose expected to kill half of the subjects tested. `CCCCOc1c(OC)ccc2c(Cc3ccc(C(C)C)cc3)c3[n+](cc12)CCc1cc2c(cc1-3)OCO2.[Cl-]`: the MIC is 0.25 µg/mL with Clavispora lusitaniae; 4 µg/mL with Aspergillus terreus; 1 µg/mL with Pichia kudriavzevii; 2 µg/mL with Aspergillus fumigatus; 0.5 µg/mL in the series on Candida albicans; 0.25 µg/mL in the series with Candida tropicalis. In addition, the MIC with Cryptococcus neoformans was found to be 1 µg/mL. The Activity entry with Mus musculus [1], with Mus musculus [3], in the series with Mus musculus [4] and with Mus musculus [5] was “Non-toxic” throughout. Further, in [2], the LD50 at 168 h was 900 mg/kg.

With `CCCC(=O)Oc1c(OC)ccc2c(Cc3ccc(C(C)C)cc3)c3[n+](cc12)CCc1cc2c(cc1-3)OCO2.[Cl-]`, the minimum inhibitory concentration (MIC) was 8 µg/mL against Clavispora lusitaniae; over 128 µg/mL in the series on Aspergillus terreus; 8 µg/mL in the series with Pichia kudriavzevii; over 128 µg/mL in the series on Aspergillus fumigatus; 8 µg/mL in the series with Candida albicans; 8 µg/mL with Candida tropicalis. This molecule also registered an MIC in the series with Cryptococcus neoformans of 4 µg/mL.

Turning to `COc1ccc2c(Cc3ccc(C(C)C)cc3)c3[n+](cc2c1OC)CCc1cc2c(cc1-3)OCO2`, the minimal inhibitory concentration (MIC) in the series with Clavispora lusitaniae came out at 1 µg/mL; against Aspergillus terreus it was 32 µg/mL; against Pichia kudriavzevii it was 4 µg/mL; with Aspergillus fumigatus, 64 µg/mL; in the series on Candida albicans it was 4 µg/mL; in the series on Candida tropicalis, 1 µg/mL. The MIC in the series on Cryptococcus neoformans stood at 4 µg/mL.

For `COc1ccc2c(Cc3ccc(C(C)C)cc3)c3[n+](cc2c1OCc1ccc(OC(F)(F)F)cc1)CCc1cc2c(cc1-3)OCO2.[Cl-]`, the MIC against Clavispora lusitaniae came out at 2 µg/mL; against Aspergillus terreus, 16 µg/mL; in the series with Pichia kudriavzevii, 4 µg/mL; against Aspergillus fumigatus it was 32 µg/mL; in the series with Candida albicans, 2 µg/mL; in the series with Candida tropicalis, 2 µg/mL. Further, in the series on Cryptococcus neoformans, the MIC turned out to be 4 µg/mL.

Turning to `COc1ccc2c(Cc3ccc(C(C)C)cc3)c3[n+](cc2c1OC(C)(C)C)CCc1cc2c(cc1-3)OCO2.[Cl-]`, the MIC with Clavispora lusitaniae turned out to be 1 µg/mL; against Aspergillus terreus it was 32 µg/mL; in the series on Pichia kudriavzevii, 4 µg/mL; in the series with Aspergillus fumigatus, 32 µg/mL; with Candida albicans it was 4 µg/mL; in the series with Candida tropicalis, 1 µg/mL. In the series with Cryptococcus neoformans, the minimum inhibitory concentration (MIC) turned out to be 4 µg/mL.

As for `C=CCOc1c(OC)ccc2c(Cc3ccc(C(C)C)cc3)c3[n+](cc12)CCc1cc2c(cc1-3)OCO2.[Cl-]`, the minimum inhibitory concentration (MIC) against Clavispora lusitaniae was 1 µg/mL; in the series on Aspergillus terreus, 8 µg/mL; in the series on Pichia kudriavzevii, 2 µg/mL; with Aspergillus fumigatus, 8 µg/mL; against Candida albicans, 1 µg/mL; with Candida tropicalis, 1 µg/mL. The lowest concentration to inhibit growth with Cryptococcus neoformans (MIC) was 2 µg/mL.

Take `COc1ccc2c(Cc3ccc(C(C)C)cc3)c3[n+](cc2c1OCc1cc(F)c(F)c(F)c1)CCc1cc2c(cc1-3)OCO2.[Cl-]`: the MIC against Clavispora lusitaniae was determined as 4 µg/mL; with Aspergillus terreus, 32 µg/mL; in the series with Pichia kudriavzevii, 4 µg/mL; in the series on Aspergillus fumigatus, 32 µg/mL; in the series with Candida albicans, 4 µg/mL; with Candida tropicalis it was 4 µg/mL. In the series with Cryptococcus neoformans, this molecule gave an MIC of 4 µg/mL.

On to `COc1ccc2c(Cc3ccc(C(C)C)cc3)c3[n+](cc2c1OCc1ccc(C(C)C)cc1)CCc1cc2c(cc1-3)OCO2.[Cl-]`, for which the MIC with Clavispora lusitaniae worked out at 1 µg/mL; in the series with Aspergillus terreus it was 8 µg/mL; in the series on Pichia kudriavzevii it was 2 µg/mL; against Aspergillus fumigatus it was 4 µg/mL; against Candida albicans it was 1 µg/mL; in the series on Candida tropicalis, 1 µg/mL. In the series with Cryptococcus neoformans, this molecule had an MIC of 2 µg/mL.
